Assay results as given in publication PMC10498667 (Chemical Science, 2023).

Assays:
Format in all cases: biochemical
[1] = test system: preformed Aβ42 and Aβ40 aggregates; assay: Disaggregation experiments with preformed Aβ aggregates; conditions: Aβ42 and Aβ40, with and without Cu(II), Zn(II); flavonoid 50 μM; 24 h
Description: (§1) To verify whether a series of nine flavonoids can modulate the aggregation of Aβ with and without metal ions, the molecular weight (MW) distribution and morphology of the resultant Aβ species were determined by gel electrophoresis with western blotting (gel/western blot) using an anti-Aβ antibody (6E10) and transmission electron microscopy (TEM), respectively. Two types of experiments were carried out employing two major Aβ isoforms, i.e., Aβ42 and Aβ40:[25] (i) inhibition studies to identify the effect of 1–5, 1a, 1b, 4a, and 4b on the formation of Aβ aggregates; (ii) disaggregation studies to evaluate if the flavonoids with reactivities towards Aβ aggregation in inhibition studies can disassemble preformed Aβ aggregates or modulate their further aggregation, as illustrated in Fig. 4 and S5–S9. ^† Moreover, the solutions containing the flavonoids and Cu(II) were probed by electronic absorption (Abs) spectroscopy to monitor their metal binding. […] As expected, no Abs change of 1a and 4a composed of methoxy groups on the A ring was detected by addition of Cu(II). […]
(§2) Ab Aggregation Experiments. Ab was dissolved in ammonium hydroxide [1% w/w NH4OH (aq)] and the resulting solution was aliquoted, lyophilized overnight, and stored at –80 °C. A stock solution of Ab was then prepared by dissolving the lyophilized peptide with NH4OH (1% w/w, aq; 10 µL) and diluting with ddH2O. All Ab samples were prepared following previously reported procedures.21,22 The concentration of the peptide solution was determined by measuring its […]
solution (20 mM HEPES, pH 7.4, 150 mM NaCl) was used for preparing Ab samples. For the inhibition studies, flavonoids (final concentration, 50 µM; 1% v/v DMSO) were added to the samples of Ab (25 µM) in the absence and presence of CuCl2 or ZnCl2 (25 µM) followed by incubation for 24 h at 37 °C with constant agitation. For the disaggregation studies, Ab (25 µM) was incubated with and without CuCl2 or ZnCl2 (25 µM) for 24 h at 37 °C with constant agitation to generate preformed Ab aggregates. The resultant Ab aggregates were then treated with flavonoids (50 µM) and incubated for additional 24 h with constant agitation. […]

Aβ42 [2] = biological target: T1, Aβ42 (Homo sapiens, UniProt P05067); assay: Aβ42 aggregation inhibition experiments (gel/western blot, TEM); conditions: flavonoid 50 μM, 24 h
T1 construct: purchased Peptide Institute, Inc. (Osaka, Japan)
T1 sequence (P05067 672-713 limits assumed): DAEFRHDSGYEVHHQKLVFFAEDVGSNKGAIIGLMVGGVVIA
Description: as §1, §2
solution (20 mM HEPES, pH 7.4, 150 mM NaCl) was used for preparing Ab samples. For the inhibition studies, flavonoids (final concentration, 50 µM; 1% v/v DMSO) were added to the samples of Ab (25 µM) in the absence and presence of CuCl2 or ZnCl2 (25 µM) followed by incubation for 24 h at 37 °C with constant agitation. For the disaggregation studies, Ab (25 µM) was incubated with and without CuCl2 or ZnCl2 (25 µM) for 24 h at 37 °C with constant agitation to generate preformed Ab aggregates. The resultant Ab aggregates were then treated with flavonoids (50 µM) and incubated for additional 24 h with constant agitation. For the additional disaggregation experiments, preformed Ab42 aggregates (25 µM) or Ab42 seeds (10% v/v) with or without metal ions (25 µM for CuCl2 and ZnCl2) were incubated with flavonoids (50 µM) for 24 h with constant agitation. The resultant Ab aggregates were then treated with freshly prepared Ab42 […]
(25 µM) and incubated for additional 24 h with constant agitation.
Gel/Western Blot. The resultant Ab species from the aggregation experiments were analyzed by gel/Western blot using an anti-Ab antibody (6E10, Covance, Princeton, NJ, USA).21,22 Each sample (10 µL) was separated on a 10–20% tricine gel (Invitrogen). Following separation, the proteins were transferred onto nitrocellulose membranes and blocked with bovine serum albumin (BSA, 3% w/v; Sigma-Aldrich) in Tris-buffered saline (TBS) containing 0.1% v/v Tween-20 (Sigma-Aldrich) (TBS-T) for 4 h at room temperature or overnight at 4 °C. The membranes were incubated with 6E10 (1:2,000) in the solution of BSA (2% w/v in TBS-T) for 4 h at room temperature. […] A homemade ECL kit21–23 was used to visualize gel/Western blots on a ChemiDoc MP Imaging System (Bio-Rad).
TEM. Samples for TEM were prepared following previously reported methods.22,24 Glow-discharged grids (Formvar/Carbon 300-mesh; Electron Microscopy Sciences, Hatfield, PA, USA) were treated with Ab samples (25 µM; 7.5 µL) for 2 min at room temperature. Excess sample was removed using filter paper followed by washing with ddH2O (3x). Each grid incubated with uranyl […]

Aβ42 [3] = biological target: T1, Aβ42; assay: Dot blot assay with anti-oligomer (A11) and anti-fibril (OC) antibodies; conditions: flavonoid 200 μM, up to 24 h
Excerpt: Moreover, to investigate the effects of the flavonoids on the oligomerization and fibrilization of metal-free Aβ42 and metal–Aβ42, we performed the dot blot assay employing anti-oligomer (A11) and anti-fibril (OC) antibodies,[23] as illustrated in Fig. S12. ^† It should be noted that the thioflavin-T (ThT) assay utilized for monitoring the formation of β-sheet-rich aggregates cannot be carried out under our experimental conditions since the absorption windows of 4, 5, and 4b interfere with the excitation and emission wavelengths of ThT (Fig. S13 ^†). […]
Dot Blot Assay. The samples containing Ab42 (100 µM) with or without CuCl2 or ZnCl2 (100 µM) in the absence and presence of flavonoids (200 µM; 1% v/v DMSO) were prepared in 20 mM HEPES, pH 7.4, 150 mM NaCl and incubated for various time points (0, 1, 2, 3, 4, 6, 12, and 24 h). […] The membrane was incubated with a primary antibody [i.e., 6E1026 for Ab species (1:2,000), A1126 for Ab oligomers (1:1,000; Invitrogen, Carlsbad, CA, USA), or OC26 for Ab fibrils (1:2,000; Merch Millipore, Billerica, MA, USA)] in the solution of BSA (2% w/v in TBS-T) for 4 h at room temperature. […] A homemade ECL kit21–23 was used to visualize the results on a ChemiDoc MP Imaging System.
The intensity observed from A11- or OC-detectable Ab species was quantified, relative to that detected from 6E10, by the ImageJ software. […]

[4] = Zn(II)–Aβ42, Aβ 25 μM, Zn(II) 25 μM
[5] = Cu(II)–Aβ42 or Zn(II)–Aβ42 100 μM
[6] = Cu(II)–Aβ42, Aβ 25 μM, Cu(II) 25 μM

Row | Compound | effect on preformed metal-free Aβ and metal–Aβ aggregates [1] | morphology of resultant aggregates (TEM) (Aβ42 [2]; Cu(II)–Aβ42) | MW distribution of resultant species (gel/western blot) (Aβ42 [2]; [4]) | morphology of resultant aggregates (TEM) (Aβ42 [2]; Zn(II)–Aβ42) | MW distribution of resultant species (gel/western blot) (Aβ42 [2]; metal-free Aβ42 25 μM, 37 °C) | morphology of resultant aggregates (TEM) (Aβ42 [2]; metal-free Aβ42) | A11- and OC-detectable signals (oligomers and fibrils) (Aβ42 [3]; [5]) | A11- and OC-detectable signals (oligomers and fibrils) (Aβ42 [3]; metal-free Aβ42 100 μM) | MW distribution of resultant species (gel/western blot) (Aβ42 [2]; [6])
1 | O=c1c(-c2ccccc2)coc2cc(O)c(O)c(O)c12 [4b, 5,6,7-trihydroxyisoflavone] | could disassemble preformed metal-free Aβ and metal–Aβ aggregates | chopped and thin fibrils | smearing bands at ca. 25–240 kDa | small amorphous aggregates | discernably reduced the signal intensity of the bands | smaller fibrils and less structured aggregates | gradually decreased signal intensities | the formation of Aβ oligomers and fibrils were reduced | 
2 | O=c1cc(-c2ccccc2)oc2cc(O)cc(O)c12 [compound 1, chrysin] | less noticeably affected | did not indicate any noticeable morphological changes | a significant change in the MW distribution was not indicated | did not indicate any noticeable morphological changes |  |  | not significantly varied | not significantly varied | 
3 | O=c1cc(-c2ccccc2)oc2cc(O)c(O)cc12 [compound 2, 6,7-dihydroxyflavone] | less noticeably affected | did not indicate any noticeable morphological changes | a significant change in the MW distribution was not indicated | did not indicate any noticeable morphological changes |  |  | not significantly varied | not significantly varied | 
4 | O=c1cc(-c2ccccc2)oc2ccc(O)c(O)c12 [compound 3, 5,6-dihydroxyflavone] | the reactivity was shown only in the presence of metal ions | A mixture of amorphous and small fibrillary aggregates | increased signal intensity between ca. 25–75 kDa | small amorphous aggregates |  |  |  |  | more intense smearing
5 | O=c1cc(-c2ccccc2)oc2cc(O)c(O)c(O)c12 [compound 4, baicalein] | could disassemble preformed metal-free Aβ and metal–Aβ aggregates | chopped and thin fibrils | smearing bands at ca. 25–240 kDa | chopped fibrils and amorphous assemblies | discernably reduced the signal intensity of the bands | shorter and thinner fibrils |  | the formation of Aβ oligomers and fibrils were reduced | enhanced level of dodecameric or larger Aβ42 aggregates
6 | O=c1cc(-c2ccccc2)oc2c(Cl)c(O)c(O)c(O)c12 [compound 5, 8-chlorobaicalein] | could disassemble preformed metal-free Aβ and metal–Aβ aggregates | A mixture of amorphous and small fibrillary aggregates | smearing bands at ca. 25–240 kDa | both amorphous and fibrillary Zn(II)–Aβ42 aggregates | discernably reduced the signal intensity of the bands | smaller fibrils and less structured aggregates |  | the formation of Aβ oligomers and fibrils were reduced | 
7 | O=c1c(-c2ccc(O)c(O)c2)coc2cc(O)c(O)c(O)c12 [compound 6, 3-(3,4-dihydroxyphenyl)-5,6,7-trihydroxy-4H-chromen-4-one] | affected their corresponding preformed Aβ aggregates and seeds | chopped fibrils | smearing bands from ca. 20–240 kDa were noticeably detected | a mixture of amorphous and fibrillary aggregates | reduced at ca. 4–20 kDa and above ca. 100 kDa | shorter and thinner fibrils | significantly decreased A11- and OC-detectable signal intensities | significantly decreased A11- and OC-detectable signal intensities | smearing bands from ca. 20–240 kDa were noticeably detected
